{"source": "patent US11717557B2", "about": "“Use of PRG4 as an anti-inflammatory agent” (Lubris LLC, priority 2015, dated 2023)", "key": {"[1]": {"tested_on": "osteoarthritic (OA) synovial fluid cells", "assay": "Cytokines secreted by osteoarthritic synoviocytes (Luminex)", "assay_type": "cell-based, human", "conditions": "rhPRG4 90 μg/mL, 24 hours, versus PBS", "protocol": "Synovial fluid cells were obtained from normal and osteoarthritic (OA) patients and purified with CD90+ following an immune cell depletion. The cells were plated at 10,000 per well and suspended in media containing DMEM, heat-inactivated Hyclone FBS (10%), and Anti-Anti (1%). The assays contained the cell suspension (cells+ media) at 180 μL and the ligands at 20 μL for a total volume of 200 μL. Recombinant lubricin (rhPRG4) was then introduced to the cells at a concentration of 90 μg/mL and the negative control was PBS. The plate was then incubated at 37° C. at 5% CO2 for 24 hours, after which the supernatants were collected for cytokine analysis via the Luminex multiplex platform."}, "[2]": {"tested_on": "Rheumatoid arthritis fibroblast-like synoviocytes (RA-FLS)", "assay": "Cytokine-induced RA-FLS proliferation (MTS)", "assay_type": "cell-based", "conditions": "48 hours, p<0.05", "protocol": "Rheumatoid arthritis fibroblast-like synoviocytes (RA-FLS; Cell Applications, USA) between 3rd and 6th passages were used to conduct these experiments. In sterile 96 well plates, RA-FLS (5,000 cells per well in 80 μL) were cultured in DMEM supplemented with 1% FBS and 1 mM pyruvate and stimulated with recombinant human interleukin-1 beta (IL-1β; R & D systems) at 20 ng/mL or tumor necrosis factor alpha (TNF-α; R & D systems) at 5 ng/mL for 48 hours at 37° C. in the absence or presence of rhPRG4 or HMW HA at a final concentration of 20, 40 or 80 μg/mL. The total volume in each well was 200 μL. Cell proliferation, an indication of inflammation, was determined using the CellTiter 96 AQueous one solution cell proliferation assay (MTS; Promega, USA) and the 490 nm absorbance was determined. Data is presented as the number of fold change in 490 nm absorbance compared to untreated control RA-FLS. The data represents the average of 3 independent experiments with at least triplicate wells per treatment. To evaluate the contribution of CD44 to the effect of rhPRG4 or HMW HA, RA-FLS were stimulated with IL-1β or TNF-α as described above. Treatment with rhPRG4 or HMW HA was conducted to a final concentration of 80 μg/mL in the absence or presence of IM7 (Abcam, USA), a CD44 neutralizing antibody that recognizes a conserved epitope across all CD44 isoforms (Samson et al., Exp Eye Res, 2014; 127C:14-19), at a final dilution of 1:200. The total volume in each well was 200 μl. Cell proliferation across the experimental groups was determined as described above and data is presented as the number of fold change in 490 nm absorbance compared to untreated control RA-FLS. The data represents the average of 3 independent experiments with at least triplicate wells per treatment."}, "[3]": {"tested_on": "NFκB nuclear translocation in RA-FLS", "assay": "NFκB nuclear translocation after TNF-α stimulation of RA-FLS", "assay_type": "cell-based", "conditions": "TNF-α 5 ng/mL; rhPRG4 200 μg/mL or MG 132 3 μM; 24 hours; p<0.001", "protocol": "RA-FLS (400,000 cells/well) were cultured and stimulated with TNF-α (5 ng/mL) and treated with rhPRG4 (200 μg/mL) or a commercially available NFκB translocation inhibitor MG 132 (3 μM; Tocris Bioscience) for 24 hours in serum free media. Cells were harvested and nuclear extraction was performed using a commercially available kit (Thermo scientific). Total protein was measured using a micro bicinchonic acid (BCA) kit (Thermo scientific) and 3 μg of nuclear extract of each experimental group were used. The p50 subunit of NFκB was detected in the nuclear extract using a commercially available NFκB DNA binding assay kit (Abcam). Data is presented as the number of fold change in NFκB nuclear levels compared to untreated control. To evaluate whether inhibition of NFκB translocation by rhPRG4 is CD44 dependent, the above experiment was repeated in the presence or absence of IM7 CD44 antibody (1:1,000 dilution). Data represents the average of 3 independent experiments with at least triplicate wells per treatment."}, "[4]": {"tested_on": "whole citrated blood", "assay": "Lubricin on LPS-mediated inflammatory cytokine generation in whole blood", "assay_type": "cell-based, human", "conditions": "LPS 10 ng/mL then lubricin 0.57 mg/mL, versus LPS alone", "protocol": "The effect of lubricin on LPS-mediated inflammatory cytokine generation was studied using Biochip Array technology. In these studies LPS alone at 10 ng/mL and LPS pre-supplementation at 10 ng/mL followed by lubricin supplementation at 0.57 mg/mL were compared in the whole citrated blood for the generation of various inflammatory cytokines. All samples were incubated for 60 minutes and centrifuged to obtain plasma. This plasma was subsequently analyzed using the biochip array for inflammatory cytokines. LPS was supplemented to whole blood in a 1:10 dilution."}}}
{"substance": "rhPRG4: full-length recombinant human PRG4 (lubricin) glycoprotein produced by CHO-M cells (Lubris), Mr≅240 KDa", "values": [{"measurement": "FGF-2 and IL-1Ra cytokines", "setting": "[1]", "result": "down-regulation"}, {"measurement": "RA-FLS proliferation with IL-1β stimulation", "setting": "[2]; IL-1β 20 ng/mL, treatment 40 and 80 μg/mL", "result": "significantly suppressed"}, {"measurement": "RA-FLS proliferation with TNF-α stimulation", "setting": "[2]; TNF-α 5 ng/mL, treatment 20, 40 and 80 μg/mL", "result": "significantly suppressed"}, {"measurement": "NFκB nuclear translocation compared to TNF-α-treated RA-FLS", "setting": "[3]", "result": "significantly reduced"}, {"measurement": "IL-4, IL-6, IL-8, IL-10, VEGF, TNF-α, IL-1β, MCP-1 and EGF", "setting": "[4]; 60 minutes", "result": "decrease"}, {"measurement": "EGF, IL10, VEGF, MCP1, IL1b and TNF levels", "setting": "[4]", "result": "marked decrease"}]}
